We go through 18 compounds from PubChem BioAssay (NCI).

Test systems include MOLT-4 leukemia; NCI-H23 lung; M14 melanoma; EKVX NSCLC; A549 NSCLC; CCRF-CEM leukemia; NCI/ADR-RES ovarian; PC-3 prostate; BT-549 breast; MDA-MB-231 breast.
Common to all, as to experiment: NCI tumour cell line growth inhibition, 48 h

“And” between values parts separate entries of the source, which are not always exact repeats. Equal entries are not always repeated.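 Protocol summary: plate cells (96-well), add compound at 5 concentrations, incubate 48 h, interpolate endpoints linearly. GI50: concentration for 50% inhibition of growth. TGI: concentration producing complete growth inhibition.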

As to `O=C(/C=C/c1ccccc1)c1ccc(Cl)cc1Cl`, the TGI amounted to 42.9 µM with MOLT-4 leukemia; 75.8 µM with NCI-H23 lung; 45.3 µM in the assay on M14 melanoma; 62.3 µM in the assay on EKVX NSCLC; 60.3 µM with A549 NSCLC; 33.1 µM with CCRF-CEM leukemia.

Take `N#C/C(=C\c1ccc(O)cc1)C(N)=O`: the TGI is greater than 100 µM with NCI/ADR-RES ovarian; greater than 100 µM in the assay on MOLT-4 leukemia; greater than 100 µM in the assay on NCI-H23 lung; greater than 100 µM with M14 melanoma; 97.8 µM and > 100 µM in the assay with EKVX NSCLC; greater than 100 µM in the assay with A549 NSCLC. Moreover, in the assay with CCRF-CEM leukemia, the TGI was greater than 100 µM.

As for `COC(=O)c1c(C(=O)OC)c(-c2ccccc2)n(-c2ccccc2)c(=O)c1-c1ccccc1`, the TGI in the assay with MOLT-4 leukemia, with NCI-H23 lung, with M14 melanoma, in the assay with EKVX NSCLC, in the assay with A549 NSCLC and in the assay on CCRF-CEM leukemia was greater than 100 µM each time.

For the compound `COC(=O)C(=O)C(C(=O)C(=O)Nc1ccc([N+](=O)[O-])cc1)c1nc2ccccc2[nH]c1=O` (stereo not drawn), the TGI in the assay on MOLT-4 leukemia, in the assay on NCI-H23 lung, in the assay with M14 melanoma, with A549 NSCLC and in the assay with CCRF-CEM leukemia was greater than 100 µM throughout.

In the case of `O=C(N/C(=C\c1ccc([N+](=O)[O-])cc1)c1nc2ccccc2s1)c1ccccc1`, the TGI in the assay on MOLT-4 leukemia was 48 µM; in the assay on NCI-H23 lung it was 61.7 µM; in the assay with M14 melanoma it was 81.8 µM; with A549 NSCLC, greater than 100 µM; with CCRF-CEM leukemia it was 66.3 µM.

As to `COC1C(OC(=O)c2ccc(C)[nH]2)C(O)C(Oc2ccc3c(O)c(NC(=O)c4ccc(O)c(CC=C(C)C)c4)c(=O)oc3c2Cl)OC1(C)C` (stereo not drawn), the TGI in the assay with PC-3 prostate came out at 29.3 µM; with MOLT-4 leukemia it was 45.8 µM; with NCI-H23 lung, 45.5 µM; in the assay with M14 melanoma, 32.2 µM; in the assay on EKVX NSCLC it was 61.9 µM; in the assay on A549 NSCLC, 91.7 µM. Further, the TGI is 42.5 µM in the assay with BT-549 breast, 49.4 µM in the assay on MDA-MB-231 breast and 58.9 µM with CCRF-CEM leukemia.

With `COC(=O)CC1(O)C(=O)OCc2c1cc1n(c2=O)Cc2c-1nc1ccccc1c2OC` (stereo not drawn), the TGI with MOLT-4 leukemia was 0.165 µM; in the assay on NCI-H23 lung it was 1.68 µM; in the assay with M14 melanoma, 32.2 µM; with EKVX NSCLC it was greater than 100 µM; in the assay on A549 NSCLC, greater than 100 µM; with CCRF-CEM leukemia it was 0.594 µM.

As to `Cc1cc(N(CCC#N)CCC#N)ccc1/C=C(\NC(=O)/C=C/c1ccccc1)C(=O)Nc1ccccc1Cl`, the TGI with MOLT-4 leukemia, in the assay with NCI-H23 lung, in the assay on M14 melanoma, in the assay with EKVX NSCLC, with A549 NSCLC and in the assay with CCRF-CEM leukemia was greater than 100 µM each time.

For `CCOc1ccc(NC(=O)CC2SC(=Nc3ccc(C)cc3)NC2=O)cc1` (stereo not drawn), the TGI was 77.6 µM with MOLT-4 leukemia; greater than 100 µM in the assay with NCI-H23 lung; greater than 100 µM in the assay on M14 melanoma; greater than 100 µM in the assay with EKVX NSCLC; greater than 100 µM in the assay on A549 NSCLC; greater than 100 µM with CCRF-CEM leukemia.

For `CC(C)(C)N/N=C(/Cc1nc2c3c(ccc2[nH]c1=O)C(=O)c1ccccc1C3=O)C(=O)NC1=C(Cl)C(=O)c2ccccc2C1=O`, the TGI in the assay with NCI/ADR-RES ovarian is 45.1 µM; in the assay on PC-3 prostate, greater than 100 µM; in the assay on MOLT-4 leukemia, greater than 100 µM; with NCI-H23 lung it was greater than 100 µM; in the assay with M14 melanoma, greater than 100 µM; with EKVX NSCLC, greater than 100 µM. In addition, the TGI in the assay on A549 NSCLC, in the assay on BT-549 breast and with CCRF-CEM leukemia was greater than 100 µM throughout.

As for `CC(C)=C[C@@H]1C[C@H](C)[C@H]2CC[C@H](C)c3c(O)c(OC4OC(C)C(O)C(O)C4O)c(C)c1c32` (stereo partly drawn), the GI50 was 0.648 µM with NCI/ADR-RES ovarian; 8.35 µM with MOLT-4 leukemia; 2.21 µM in the assay on NCI-H23 lung; 11.5 µM with M14 melanoma; 19.3 µM with EKVX NSCLC; 11.9 µM in the assay with A549 NSCLC. In addition, the values for the GI50 with BT-549 breast, in the assay on MDA-MB-231 breast and with CCRF-CEM leukemia were 18.9 µM, 13.2 µM and 12.8 µM, respectively. Also, the TGI with NCI/ADR-RES ovarian came out at 16.8 µM; with MOLT-4 leukemia it was 23.9 µM; in the assay on NCI-H23 lung it was 20 µM; in the assay with M14 melanoma, 24.9 µM; in the assay on EKVX NSCLC, 34.2 µM; with A549 NSCLC, 24.2 µM. Also, the TGI is 34.8 µM with BT-549 breast, 26.6 µM with MDA-MB-231 breast and 26.3 µM with CCRF-CEM leukemia.

Turning to `C=CCNC(=S)NNC(=O)c1c(C)nc2sccn12`, the TGI in the assay on MOLT-4 leukemia, in the assay on NCI-H23 lung, in the assay on EKVX NSCLC, in the assay on A549 NSCLC and in the assay with CCRF-CEM leukemia was greater than 100 µM in each case.

With `COc1ccc(/C=C/C(=O)c2c(-c3ccccc3)nn(C)c(=O)c2N2CC2C)cc1` (stereo not drawn), the TGI was greater than 100 µM with MOLT-4 leukemia; 50.7 µM with NCI-H23 lung; greater than 100 µM in the assay with M14 melanoma; 94.3 µM with EKVX NSCLC; greater than 100 µM in the assay with A549 NSCLC; 73.9 µM in the assay with CCRF-CEM leukemia.

On to `Cc1ccc(C)c2c1C1CCCCC3(OCCCO3)C21O` (stereo not drawn), for which the TGI in the assay on MOLT-4 leukemia, in the assay with NCI-H23 lung, in the assay on M14 melanoma, with A549 NSCLC and in the assay with CCRF-CEM leukemia was greater than 100 µM each time.

For `Cc1cc(NCCCCCCCNc2cc(C)nc3cc(N)ccc23)c2ccc(N)cc2n1`, the TGI is greater than 100 µM in the assay with MOLT-4 leukemia; greater than 100 µM in the assay on NCI-H23 lung; greater than 100 µM in the assay on M14 melanoma; greater than 100 µM in the assay on EKVX NSCLC; greater than 100 µM with A549 NSCLC; 64.9 µM in the assay on CCRF-CEM leukemia.

As to `O=P(CN1CCOCC1)(c1ccccc1)c1ccccc1`, the TGI in the assay on MOLT-4 leukemia, in the assay with NCI-H23 lung, in the assay with M14 melanoma, in the assay with EKVX NSCLC, in the assay on A549 NSCLC and with CCRF-CEM leukemia was greater than 100 µM in each case.

In the case of `CCOc1ccc(C2=NN(CC)C(=O)C(C3C(=O)N(c4ccccc4)N=C3C)C2)cc1` (stereo not drawn), the TGI in the assay on MOLT-4 leukemia, in the assay on NCI-H23 lung, in the assay on M14 melanoma, in the assay with EKVX NSCLC, in the assay on A549 NSCLC and in the assay on CCRF-CEM leukemia was greater than 100 µM in each case.

As for `COc1cc2c(oc(=O)c3c4occc4cc(OC)c23)c2cccc(O)c12`, the TGI in the assay on MOLT-4 leukemia, in the assay with NCI-H23 lung, with M14 melanoma, in the assay with EKVX NSCLC, in the assay with A549 NSCLC and in the assay on CCRF-CEM leukemia was greater than 100 µM each time.
